Key:
Format in all cases: in vivo
PGC-1α [1] = assay: PGC-1α protein levels (immunoblot) in kidneys of old mice (Example 2); details: kidneys of 21-month-old mice; 1 mg/kg body weight/day intraperitoneally for three weeks; FIGS. 4A and 4B
Description: (§1) FIGS. 4A-4D show PGC-1α protein levels presented as an immunoblot (FIG. 4A) and quantified (FIG. 4B), and p-Stat3 protein levels presented as an immunoblot (FIG. 4C) and quantified (FIG. 4D), in the kidneys of 4-month old (“young”) and 21-month-old (“old”) mice, in which a cohort of the old mice were administered a STING inhibitor (“SI”), C-176, as described in Example 2.
(§2) A study was conducted to evaluate expression levels of various markers and cytokines under inflammatory conditions, and the impact of administering a STING inhibitor on expression and protein levels.
(§3) In a second aspect of the study, an inhibitor of STING, C-176, was administered (1 mg/kg body weight/day, administered intraperitoneally, for three weeks) to the 21-month-old mice.

IL-1β [2] = assay: IL-1β mRNA expression in kidneys of db/db mice (Example 3); details: kidneys of 4-month-old db/db mice; 1 mg/kg body weight/day intraperitoneally for eight weeks; FIG. 5
Description: (§4) A study was conducted to evaluate mRNA expression and protein levels of various markers and cytokines in kidneys of 4-month-old db/db mice, which is a model of type 2 diabetes due to a deficiency in leptin receptor activity, and in 4-month-old db/m mice, which are nondiabetic controls; and the effects of administering STING inhibitor C-176 (1 mg/kg body weight/day, administered intraperitoneally, for eight weeks) to these mice.

[3] = system: inflammation in the kidneys of diabetic mice; assay: Inflammation in the kidneys of diabetic mice (Example 3); details: db/db mice; 1 mg/kg body weight/day intraperitoneally for eight weeks
Description: as §4

p21 = p21 mRNA expression in kidneys of old mice (Example 2); details: kidneys of 21-month-old mice; 1 mg/kg body weight/day intraperitoneally for three weeks; FIG. 3D
Description: (§5) FIGS. 3A-3F show mRNA expression of peroxisome proliferator-activated receptor-gamma coactivator (PGC)-1α (PGC-1α) (FIG. 3A), PGC-1β (FIG. 3B), ERR-alpha (ERRα) (FIG. 3C), p21 (FIG. 3D), interleukin (IL)-1β (FIG. 3E), and signal transducer and activator of transcription 3 (Stat3) (FIG. 3F) in the kidneys of 4-month old (“young”) and 21-month-old (“old”) mice, in which a cohort of old mice were administered a STING inhibitor (“SI”), C-176, as described in Example 2.
as §2
(§6) In one aspect of the study, mRNA expression levels of PGC-1α, PGC-1β, ERRα, p21, IL-1β, and Stat3 were examined in kidneys of mice that are 4 months old (young) and kidneys of mice that are 21 months old (aged and marked by inflammation).
as §3

p-IRF3 = p-IRF3 protein levels in kidneys of db/db mice (Example 3); details: kidneys of 4-month-old db/db mice; 1 mg/kg body weight/day intraperitoneally for eight weeks; FIG. 6C
Description: (§7) FIGS. 6A-6C show p-Stat3 protein levels presented as an immunoblot (FIG. 6A) and quantified (FIG. 6B), and protein levels of phospho-interferon regulatory factor (p-IRF) (FIG. 6C) in the kidneys of […] diabetic mice (“db/db”) and non-diabetic mice (“db/m”) mice, in which a cohort of the mice were administered STING inhibitor C-176, as described in Example 3.
as §4

Stat3 [4] = assay: Stat3 mRNA expression in kidneys of old mice (Example 2); details: kidneys of 21-month-old mice; 1 mg/kg body weight/day intraperitoneally for three weeks; FIG. 3F
Description: as §5, §2, §6, §3

PGC-1β = PGC-1β mRNA expression in kidneys of old mice (Example 2); details: kidneys of 21-month-old mice; 1 mg/kg body weight/day intraperitoneally for three weeks; FIG. 3B
Description: as §5, §2, §6, §3

IL-1β [5] = assay: IL-1β mRNA expression in kidneys of old mice (Example 2); details: kidneys of 21-month-old mice; 1 mg/kg body weight/day intraperitoneally for three weeks; FIG. 3E
Description: as §5, §2, §6, §3

PGC-1α [6] = assay: PGC-1α mRNA expression in kidneys of old mice (Example 2); details: kidneys of 21-month-old mice; 1 mg/kg body weight/day intraperitoneally for three weeks; FIG. 3A
Description: as §5, §2, §6, §3

Stat3 [7] = assay: Stat3 protein levels (immunoblot) in kidneys of old mice (Example 2); details: kidneys of 21-month-old mice; 1 mg/kg body weight/day intraperitoneally for three weeks; FIGS. 4C and 4D
Description: as §1, §2, §3

ERRα = ERRα mRNA expression in kidneys of old mice (Example 2); details: kidneys of 21-month-old mice; 1 mg/kg body weight/day intraperitoneally for three weeks; FIG. 3C
Description: as §5, §2, §6, §3

p-Stat3 = p-Stat3 protein levels in kidneys of db/db mice (Example 3); details: kidneys of 4-month-old db/db mice; 1 mg/kg body weight/day intraperitoneally for eight weeks; FIGS. 6A and 6B
Description: as §7, §4

cGAS [8] = assay: cGAS mRNA expression in kidneys of young and old mice (Example 1); details: kidneys of 21-month-old mice; 25 mg/kg body weight/day intraperitoneally for eight weeks; FIG. 1B
Description: (§8) FIGS. 1A-1B show mRNA expression of STING (FIG. 1A) and cyclic guanosine monophosphate-adenosine monophosphate (cyclic GMP-AMP) synthase (cGAS) (FIG. 1B) in the kidneys of 4-month old (“young”) and 21-month-old (“old”) mice, in which a cohort of mice were administered a pan estrogen-related receptor (ERR) agonist, as described in Example 1.
(§9) A study was conducted to evaluate STING and cGAS under inflammatory conditions.
(§10) In one aspect of the study, mRNA expression and protein levels of STING and cGAS were assessed in kidneys of mice that are 4 months old (young) and kidneys of mice that are 21 months old (aged and marked by inflammation).
(§11) In a second aspect of the study, 4-month-old mice and 21-month-old mice were treated with a pan ERR agonist, SLU-PP-332 (25 mg/kg body weight/day, administered intraperitoneally, for eight weeks).

STING [9] = assay: STING mRNA expression in kidneys of young and old mice (Example 1); details: kidneys of 21-month-old mice; 25 mg/kg body weight/day intraperitoneally for eight weeks; FIG. 1A
Description: as §8, §9, §10, §11

STING [10] = assay: STING protein levels (immunoblot) in kidneys of young and old mice (Example 1); details: kidneys of 21-month-old mice; 25 mg/kg body weight/day intraperitoneally for eight weeks; FIGS. 2A and 2B
Description: (§12) FIGS. 2A-2D show STING protein levels presented as an immunoblot (FIG. 2A) and quantified (FIG. 2B), and cGAS protein levels presented as an immunoblot (FIG. 2C) and quantified (FIG. 2D), in the kidneys of 4-month old (“young”) and 21-month-old (“old”) mice, in which a cohort of mice were administered a pan ERR agonist, as described in Example 1.
as §9, §10, §11

cGAS [11] = assay: cGAS protein levels (immunoblot) in kidneys of young and old mice (Example 1); details: kidneys of 21-month-old mice; 25 mg/kg body weight/day intraperitoneally for eight weeks; FIGS. 2C and 2D
Description: as §12, §9, §10, §11

Row | Structure (SMILES) | protein levels of PGC-1α (PGC-1α [1]) | mRNA expression of IL-1β (activation of IL-1β) (IL-1β [2]) | inflammation in the kidneys of diabetic mice [3] | mRNA expression of p21 (p21) | p-IRF3 levels (p-IRF3) | mRNA expression of Stat3 (Stat3 [4]) | mRNA expression of PGC-1β (PGC-1β) | mRNA expression of IL-1β (IL-1β [5]) | mRNA expression of PGC-1α (PGC-1α [6]) | protein levels of Stat3 (Stat3 [7]) | mRNA expression of ERRα (ERRα) | p-Stat3 levels (p-Stat3) | mRNA expression of cGAS (cGAS [8]) | mRNA expression of STING (STING [9]) | protein levels of STING (STING [10]) | protein levels of cGAS (cGAS [11])
1 | O=C(Nc1ccc(I)cc1)c1ccc([N+](=O)[O-])o1 [C-176, N-(4-iodophenyl)-5-nitro-2-furancarboxamide] | reversed the decrease | reversed the activation | decreases inflammation | reversed the increase | reversed the increase | reversed the increase | reversed the decrease | reversed the increase | reversed the decrease | reversed the increase | reversed the decrease | reversed the increase |  |  |  | 
2 | O=C(N/N=C/c1ccc2ccccc2c1)c1ccc(O)cc1 [SLU-PP-332] |  |  |  |  |  |  |  |  |  |  |  |  | significantly reversed the increase | significantly reversed the increase | significantly reversed the increase | significantly reversed the increase

From US20230201187A1, “USE OF NAD+ PRECURSORS, STING INHIBITORS, AND FXR AGONISTS FOR INHIBITING SARS-COV-2 (COVID-19)-INDUCED CYTOKINE RELEASE” (Georgetown University, priority 2020, published 2023)
